# Where “and” joins values, the source holds several entries; their conditions need not be identical. Identical values can stand only once. Like-named read-outs stand apart in the source and are kept apart here.
# Key:
# [1] = Bioanalysis of compounds in mouse plasma and brain; assay type: in vivo; conditions: one hour after 30 mg/kg i.p.; for concentration at 1 h: intraperitoneal
# Protocol: (§1) Adult […] C57BL/6 J mice (3-6 months old) were provided by Charles River. Both females and males (15 females and 9 males) were used in this study. Sex was evenly distributed across experimental groups. Sex was not considered in the study design or analysis, as no reports indicate differential expression levels of GPR139 between male and female mice. They were housed with ad libitum food and water, in a temperature and humidity-controlled environment under a standard 12 h light/dark cycle. The experiments were performed in agreement with the European Council Directive (86/609/EEC) and approved by the local Animal Ethics Committee at Karolinska Institute (3218-2022). All efforts were made to minimize suffering and the number of animals used. Mice were treated with either 10% DMSO + 10% solutol HS-15 + 80% saline (vehicle, n = 8), compound 1.5 (n = 8, 30 mg/kg i.p.), or JNJ-63533054 (n = 8, 30 mg/kg i.p.), both of which were dissolved in 10% DMSO + 10% solutol HS-15 + 80% saline. Mice were placed in an open field arena 10 min after the injection and recorded for 50 min. Total distance travelled and the time spent in the periphery arena were measured using an automated video tracking system (EthoVision XT 11.5; Noldus). One-way ANOVA followed by Dunnett’s multiple comparisons test and Two-way ANOVA followed by Tukey’s multiple comparisons test were used. Brain and blood samples were taken immediately after the locomotion test. The brain samples were quickly frozen, and blood was drawn from the cervical vein upon decapitation into EP tubes. The samples were immediately centrifuged for 10 min at 3000 × g at 4 °C, and the plasma was transferred into clean polypropylene tubes. All samples were stored at −80 °C before analysis.
# 1.5(S) and JNJ-63533054, and the internal standard warfarin, were quantified in plasma and brain tissue samples, using ultraperformance liquid chromatography-tandem mass spectrometry (UPLC-MS/MS). Samples, respective blanks, standards, and quality controls (QCs) were included in each bioanalytical run. For both compounds, the calibration curves in plasma included standards at 0.5–10 µM, and QCs at 1.9–7.6 µM, and those in brain tissue homogenate included standards at 1–25 µM, and QCs at 1–20 µM.
# Plasma samples were first diluted 1:2 (v:v) in blank plasma on a 96-well plate (Corning). Thereafter, the samples, along with blank plasma, standards, and QCs, were precipitated by adding 180 µL ice-cold acetonitrile containing 100 nM warfarin to 20 µL sample. Samples were vortexed and centrifuged at 2465 × g, at 4 °C, for 20 min (Centrifuge 5810 R, Eppendorf, Germany). The supernatants were transferred to a new 96-well plate and 2 µL were injected onto the UPLC-column. One hemisphere of the brains was homogenized 1:4 (w:v) with 0.1 % formic acid in 1:1 acetonitrile and methanol (v:v) in tubes containing ceramic beads (Precellys® Hard Tissue Homogenizing CK28 (inert 2.8 ceramic, zirconium oxide, beads), 2 mL, polypropylene co-polymer, Bertin Technologies). The mechanical homogenization was performed using a Minilys homogenizer (Bertin Technologies, France) for 30 s at the highest speed (5000 rpm). The tubes were centrifuged at 5204 × g for 7 min, and the supernatant was transferred to an Eppendorf tube. Subsequently, brain homogenate supernatants, along with supernatants from blank brain homogenate, standards, and QCs, were treated as described for diluted plasma samples. […]
# [2] = set-up: method as in PMID 26349500; conditions: first hour after treatment; cited from earlier work
# C57BL/6 J mice = experiment: Open-field test (locomotion and thigmotaxis); assay type: in vivo, mouse; set-up: Total distance travelled in 50 mins (Figure 6a) / Open-field test, locomotion over time (sheet 6b) / Open-field test, thigmotaxis, whole session (sheet 6c): unit not given here; conditions: for Total distance travelled in 50 mins (Figure 6a) / Open-field test, locomotion over time (sheet 6b) / Open-field test, thigmotaxis over time (sheet 6d) / Open-field test, thigmotaxis, whole session (sheet 6c): individual mice
# Protocol: as §1
Compound,Total distance travelled in 50 mins (Figure 6a) (C57BL/6 J mice; 30 mg/kg i.p.),"Open-field test, locomotion over time (sheet 6b) (C57BL/6 J mice; 5 mins)","Open-field test, thigmotaxis over time (sheet 6d) (C57BL/6 J mice; 5 mins, in % (unit assumed))","Open-field test, locomotion over time (sheet 6b) (C57BL/6 J mice; 10 mins)","Open-field test, thigmotaxis over time (sheet 6d) (C57BL/6 J mice; 10 mins, in % (unit assumed))","Open-field test, locomotion over time (sheet 6b) (C57BL/6 J mice; 15 mins)","Open-field test, thigmotaxis over time (sheet 6d) (C57BL/6 J mice; 15 mins)","Open-field test, locomotion over time (sheet 6b) (C57BL/6 J mice; 20 mins)","Open-field test, thigmotaxis over time (sheet 6d) (C57BL/6 J mice; 20 mins)","Open-field test, locomotion over time (sheet 6b) (C57BL/6 J mice; 25 mins)","Open-field test, thigmotaxis over time (sheet 6d) (C57BL/6 J mice; 25 mins)","Open-field test, locomotion over time (sheet 6b) (C57BL/6 J mice; 30 mins)","Open-field test, thigmotaxis over time (sheet 6d) (C57BL/6 J mice; 30 mins)","Open-field test, locomotion over time (sheet 6b) (C57BL/6 J mice; 35 mins)","Open-field test, thigmotaxis over time (sheet 6d) (C57BL/6 J mice; 35 mins)","Open-field test, locomotion over time (sheet 6b) (C57BL/6 J mice; 40 mins)","Open-field test, locomotion over time (sheet 6b) (C57BL/6 J mice; 45 mins)","Open-field test, thigmotaxis over time (sheet 6d) (C57BL/6 J mice; 45 mins)","Open-field test, locomotion over time (sheet 6b) (C57BL/6 J mice; 50 mins)","Open-field test, thigmotaxis over time (sheet 6d) (C57BL/6 J mice; 50 mins)",also measured
"CC(NC(=O)CNC(=O)c1cccc(Cl)c1)c1ccccc1 (stereo not shown) [JNJ-63533054, reference compound]",3359.39 and 1792.13 and 2582.49 and 3979.72 and 2080.85 and 9982.78 and 3772.48 and 918.903,932.272 and 989.458 and 1696.51 and 1348.86 and 505.51 and 1391.08 and 1396.99 and 852.786,70.24 and 93.24 and 86.6 and 72.9333 and 95.6533 and 59.4533 and 79.16 and 62.2,809.521 and 300.737 and 1208.9 and 562.14 and 33.766 and 906.8 and 199.588 and 129.938,97.5867 and 98.7467 and 63.5867 and 94.9733 and 100 and 78.9333 and 98.0533 and 99.9733,194.752 and 21.7885 and 924.739 and 354.313 and 27.675 and 233.464 and 23.6513 and 7.655,98.8933 and 100 (4×) and 93.1733 and 95.84 and 98.8533,171.669 and 49.3834 and 612.36 and 167.407 and 0 and 187.813 and 0.8234 and 102.119,99.9467 and 100 (4×) and 97.5333 and 99.0133 and 99.7333,630.708 and 147.757 and 783.223 and 246.73 and 0.6166 and 0.4386 and 0.4195 and 141.542,94.8 and 100 (5×) and 94.6667 and 96.8533,4.719 and 265.963 and 938.142 and 27.3973 and 11.6817 and 61.4941 and 0 and 205.37,100 (5×) and 97.44 and 85.8667 and 98.56,3.326 and 8.572 and 1042.9 and 433.751 and 7.486 and 2.001 and 0.4323 and 246.216,100 (5×) and 84.7333 and 92.4267 and 94.5867,521.05 and 1.596 and 845.25 and 8.083 and 7.72 and 4.549 and 0.4103 and 0.9443,294.43 and 290.485 and 1172.17 and 477.116 and 34.0014 and 4.204 and 168.331 and 0.6994,98.6133 and 97.52 and 87.88 and 86.5333 and 99.8133 and 100 (2×) and 97.44,417.274 and 5.107 and 758.587 and 146.686 and 290.447 and 567.543 and 1.48 and 895.221,94.5733 and 100 (2×) and 95.4133 and 11.7333 and 93.0667 and 88.9333 and 83.48,"concentration at 1 h ([1]; both sexes, C57BL/6 J, brain, read-out: total brain tissue concentration (Cbrain)): 24.8 µM; Kp at 1 h ([1]; both sexes, C57BL/6 J, brain/plasma, ip, single time point, read-out: total brain-to-plasma concentration ratio (Kp,brain)): 1.21 ± 0.12; concentration at 1 h ([1]; both sexes, C57BL/6 J, plasma, read-out: total plasma concentration (Cplasma)): 20.5 µM; total brain tissue concentration (Cbrain) [1]: 24.8 ± 6.2 µM; total plasma concentration (Cplasma) [1]: 20.5 ± 5.3 µM; locomotor activity [2]: reduction in locomotor activity; thigmotaxis (time in the periphery) (C57BL/6 J mice; 30 mg/kg i.p., vs vehicle): spent more time in the periphery compared to the vehicle group; total distance travelled in the open field arena (C57BL/6 J mice; 30 mg/kg i.p., vs vehicle): results similar to those obtained for JNJ-63533054; Open-field test, thigmotaxis over time (sheet 6d) (C57BL/6 J mice; 40 mins): 97.24 and 100 (6×) and 95.16; Open-field test, thigmotaxis, whole session (sheet 6c) (C57BL/6 J mice): 97.4653 and 94.024 and 95.1893 and 98.6947 and 88.4613 and 85.0307 and 98.8533 and 92.4467"
"Cc1nocc1-c1nc(CC(=O)NC(C)c2ccccc2)no1 (stereo not shown) [Compound 1.5, CC(C1=CC=CC=C1)NC(CC2=NOC(C3=CON=C3C)=N2)=O]",3619.7 and 1516.14 and 932.636 and 2008.89 and 11482.8 and 3961.35 and 3158.61 and 1417.56,1534.71 and 1388.77 and 1295.98 and 638.887 and 1035.03 and 624.833 and 367.922 and 520.924,58.4267 and 77.1733 and 70.76 and 76.5333 and 44.5867 and 92.2133 and 78.64 and 98.2267,944.829 and 1045.75 and 698.474 and 211.083 and 1038.45 and 297.32 and 169.554 and 251.751,57.6133 and 89.2933 and 80.9867 and 94.6933 and 45.7733 and 98.64 and 97.4267 and 99.88,724.917 and 289.775 and 194.585 and 64.0034 and 579.982 and 38.8587 and 84.0131 and 202.975,79.1867 and 87.4267 and 100 (4×) and 67.5067 and 98.8533,43.478 and 341.627 and 152.166 and 3.91 and 301.879 and 49.2379 and 23.1583 and 69.7204,100 (5×) and 93.36 and 86.0667 and 98.92,1347.85 and 148.793 and 124.524 and 4.2615 and 37.5095 and 24.1112 and 17.1945 and 57.9976,75.1067 and 91.4267 and 100 (6×),1735.43 and 147.426 and 152.999 and 41.6297 and 15.7939 and 39.7283 and 43.7378 and 9.443,59.8267 and 99.36 and 97.2933 and 98.9733 and 100 (3×) and 97.7867,1485.83 and 64.3909 and 126.684 and 26.842 and 6.448 and 42.921 and 11.8566 and 37.4144,59.8533 and 100 (6×) and 99.44,1609.58 and 127.219 and 108.3 and 183.443 and 63.0073 and 201.855 and 59.5513 and 1.7683,1163.43 and 158.947 and 183.999 and 73.8724 and 168.393 and 37.8929 and 22.5543 and 382.596,64.4933 and 94.68 and 93.2533 and 100 (4×) and 88.1333,892.776 and 248.648 and 120.895 and 169.632 and 373.205 and 159.384 and 133.094 and 474.296,89.68 and 89.52 and 96.2267 and 100 (3×) and 96.5733 and 99.2533,"Open-field test, thigmotaxis over time (sheet 6d) (C57BL/6 J mice; 40 mins, in % (unit assumed)): 53.72 and 93.1467 and 46.96 and 98.3067 and 97.52 and 91.5467 and 99.2 and 100; Open-field test, thigmotaxis, whole session (sheet 6c) (C57BL/6 J mice): 98.132 and 97.2307 and 99.696 and 69.7907 and 91.5387 and 88.492 and 96.8507 and 82.616"

# Source: PMC12775434, “Ultra-large virtual screening unveils potent agonists of the neuromodulatory orphan receptor GPR139” (Nature Communications, 2025)
